Measurements: paper PMC10787067, “EBF2 Links KMT2D‐Mediated H3K4me1 to Suppress Pancreatic Cancer Progression via Upregulating KLLN” (Advanced Science, 2023)

Key:
EBF2 = test: Co-IP with H3K4me1 antibodies from GSK-LSD1-treated SW1990 cell lysates; assay type: cell-based, Human; conditions: vs vehicle, Figure 5P
Protocol: Co‐immunoprecipitation assay was performed as described previously.^[ [61] ^] Briefly, SW1990 cells were transfected with indicated constructs or treated with GSK‐LSD1, washed with cold phosphate buffered saline (PBS), and lysed with cold cell lysis buffer. Then, the lysates were incubated with appropriate specific antibodies or normal rabbit IgG at 4 °C overnight in constant rotation, followed by the addition of protein A/G Sepharose beads and incubation for 2 h at 4 °C. The beads were then washed five times by the lysis buffer. Bead‐bound proteins were resolved by SDS‐PAGE and detected by immunoblotting using indicated antibodies.

PDX tumors = test: Patient-derived xenograft (PDX) model of PDAC; assay type: in vivo, Human (xenograft in immunodeficient nude mice)
From the text: A PDX model was established by implanting tumor fragments into immunodeficient nude mice. Tumor fragments were derived from a PDAC patient with stage II ductal adenocarcinoma, who underwent surgery at the Second Affiliated Hospital of Nanjing Medical University. Informed consent was obtained from each patient, and all procedures involving human samples were approved by the Ethics Committee of the Second Affiliated Hospital of Nanjing Medical University.

SW1990 cells = test: RNA-seq of GSK-LSD1-treated SW1990 cells; assay type: cell-based, Human; conditions: fold change > 1.5, p < 0.05, Figure 4A
From the text: Total RNA was isolated from cells using RNAiso plus (Takara). The quantity and integrity of RNA were separately evaluated using the K5500 (Beijing Kaiao, China) and the Agilent 2200 TapeStation (Agilent Technologies, USA). Briefly, the mRNA was enriched by OligodT NEBNext Poly(A) mRNA Magnetic Isolation Module (NEB, USA), and then fragmented into ≈200 bp. Subsequently, the RNA fragments were subjected to first and second strand cDNA synthesis, followed by adaptor ligation and enrichment according to instructions of NEBNext Ultra RNA Library Prep Kit for Illumina. The purified library products were evaluated by the Agilent 2200 TapeStation and Qubit (Thermo Fisher Scientific, USA). The libraries were sequenced by Illumina (Illumina, USA) with paired‐end 150 bp (Ribobio, China). The clean reads were acquired after discarding low‐quality reads or those containing adapter and ploy‐N. HISAT2 was employed to calibrate clean reads to human reference genome hg38 with default parameters. HTSeq was used to convert aligned short reads into read counts for each gene model. Differential gene expression was assessed by DESeq2 using read counts as input.^[ [62] ^] The Benjamini–Hochberg multiple test correction method was employed. […] RNA‐seq data sets were available (GEO accession number GSE237363).

PANC‐1 cells = test: Colony-formation and CCK-8 proliferation, PANC-1; assay type: cell-based, Human; conditions: vs Vehicle, p < 0.01, Figure S4E,F
Protocol: Cell proliferation was determined by Cell Counting Kit‐8 (CCK‐8, Yeasen) and EdU Cell Proliferation Assay kit (Ribobio, Guangzhou, China). Colony formation was observed by staining with 0.1% crystal violet (Sangon Biotechnologies Inc., Shanghai, China). Cell migration and invasion were assessed using […] pore Transwell chambers with (for invasion assay) or without Matrigel (for migration assay). For migration assay, 5 × 10^4 SW1990 or 3 × 10^4 PANC‐1 cells were seeded into the upper chamber of the Transwell apparatus (Corning, USA) in serum‐free medium, and the medium supplemented with 10% FBS was added to the bottom chamber. For invasion assay, 10 × 10^4 SW1990 or 6 × 10^4 PANC‐1 cells were seeded into the upper Corning BioCoat Matrigel invasion chamber. After 24 h, the cells on the upper surface that had not passed through the polycarbonate filter were removed using a moistened cotton swab; the cells having migrated to the lower membrane surface were fixed in 100% methanol for 10 min, stained with 0.4% crystal violet for 15 min, and counted under a microscope (Nikon, Japan) at ×100 magnification. The cells were manually counted using Image J software. Three independent experiments were performed.

KLLN [1] = test: Western blot of KLLN in SW1990 cells; assay type: cell-based, Human
Protocol: (§1) SW1990 and PANC‐1 cells were isolated using lysate buffer containing protease inhibitors. Samples containing equal amounts of protein were separated by SDS‐PAGE. After electrophoresis, the proteins were transferred to a PVDF membrane (Millipore, Billerica, MA, USA) and blocked with 5% skim milk for 2 h at room temperature. An overnight incubation of membranes was made at 4 °C with primary antibodies against KMT2D (1:1000; Affinity, China), EBF2 (1:1000; Affinity), and KLLN (1:1000; Abcam, USA). After washing with 1× TBST for three times, a 2 h incubation of membranes was implemented with horseradish peroxidase (HRP)‐gemeled Affinipure Goat Anti‐Rabbit IgG (H + L) (1:10000; ProteinTech, China) or Peroxidase‐gemeled Affinipure Goat Anti‐Mouse IgG (H+L) (1:10000; ProteinTech) at room temperature. Proteins were visualized by chemiluminescence using an ECL kit (Thermo Fisher).

KDM1A/LSD1 = conditions: cited from earlier work
From the text: Next, we sought to elucidate the roles of KMT2D‐ and EBF2‐regulated H3K4me1 through profiling the gene transcription in PDAC cells with H3K4me1 activation by GSK‐LSD1 or EBF2 overexpression (EBF2‐OE). […] These differentially expressed genes (DEGs) were overlapped genes between EBF2‐OE and GSK‐LSD1‐treated SW1990 cells. A ...

KLLN [2] = test: Western blot of KLLN in PANC-1 cells; assay type: cell-based, Human; conditions: 0, 1, 10 or 100 μM GSK-LSD1, Figure S4D
Protocol: as §1

KLLN [3] = test: qPCR of KLLN mRNA in SW1990 cells; assay type: cell-based, Human; conditions: vs negative control, p < 0.01, Student's t-test, concentration not given, Figure 4E
Protocol: Total RNA was extracted from cultured cells using RNAiso plus (Takara, Japan). cDNA was synthesized from every 1 µg of total RNA in reverse transcription reactions with Hifair III 1st Strand cDNA Synthesis SuperMix for qPCR (Cat No. 11 141; Yeasen, Shanghai, China). qPCR was performed with Hieff qPCR SYBR Green Master Mix (Yeasen) using a Roche LightCycler 96 Real‐Time PCR System. Cycling conditions were set at 94 °C for 15 s, 60 °C for 1 min, and 72 °C for 30 s. Each reaction was performed in triplicate. The primer sequences were as follows: KMT2D‐F: 5′‐[…]‐3′; KMT2D‐R: 5′‐[…]‐3′; EBF2‐F: 5′‐[…]‐3′; EBF2‐R: 5′‐[…]‐3′; KLLN‐F: 5′‐[…]‐3’; KLLN‐R: 5′‐[…]‐3′. β‐actin‐F: 5′‐[…]‐3′; β‐actin‐R: 5′‐[…]‐3′.

H3K4me1 = test: Western blot of H3K4me1 in PANC-1 cells; assay type: cell-based, Human; conditions: 0, 1, 10 or 100 μM GSK-LSD1, Figure S4D

Compound: c1ccc([C@@H]2C[C@H]2NC2CCNCC2)cc1 [GSK‐LSD1]
- EBF2 co-immunoprecipitated with H3K4me1 (EBF2; H3K4me1 antibodies): co‐immunoprecipitated more EBF2
- EBF2 expression (EBF2; concentration not given): without affect EBF2 expression
- effect compared with Gemcitabine (PDX tumors; PDX mice, n = 5, doses not given, Figure 5N,O): more favorable effects than Gemcitabine
- PDX tumor size compared with control mice (PDX tumors; n = 5, dose not given, Figure 5N): remarkably smaller tumors
- upregulated genes overlapping between EBF2-OE and GSK-LSD1-treated cells (SW1990 cells): 17
- proliferation (PANC‐1 cells): significantly inhibited
- KLLN level, concentration dependence (KLLN [1]; 0, 1, 10, or 100 µM GSK-LSD1, Figure 5E): increased the levels of H3K4me1 and KLLN in a concentration‐dependent manner
- KLLN protein level (KLLN [1]; Western blot, concentration not given, Figure 4F): significant upregulation
- H3K4me1 level via blocking of KDM1A/LSD1 (KDM1A/LSD1): can increase H3K4me1 level
- inhibition of KDM1A/LSD1, in words (KDM1A/LSD1): selective inhibitor of KDM1A/LSD1
- KLLN level, concentration dependence (KLLN [2]): increased the levels of H3K4me1 and KLLN in a concentration‐dependent manner
- KLLN mRNA level (KLLN [3]): significant upregulation
- H3K4me1 level, concentration dependence (H3K4me1): increased the levels of H3K4me1 and KLLN in a concentration‐dependent manner
